Peptide text beside a SMILES is read from it.
System: Human dermal fibroblast cells
Assay: Pro-collagen I production in human dermal fibroblast cells (HTRF human pro-collagen I kit)
Assay type: cell-based
Details: peptide concentration 0.001% in DMEM media without FBS, 48 h treatment, percent change relative to vehicle control
Experimental: Human dermal fibroblast cells were grown in a 96 well plate in DMEM media (available from Corning, N.Y.) supplemented with 10% Fetal Bovine Serum (FBS) and L-glutamine (0.07×10^5 cells/plate). After reaching about 75% confluence, cells were transferred into DMEM media without FBS and incubated for 4-6 hours. Next, cells were treated with peptide of Formula I at 0.00001%, 0.0001%, 0.001% final concentration in DMEM media without FBS for 48 h. After treatment the media were collected, and cell viability was measured using MTT. The amount of secreted collagen was tested in the media using HTRF human pro-collagen I kit (Cisbio Inc, Bedford, Mass.).
Results are summarized in Table 1 below as percent change of pro-collagen I production relative to vehicle control: […]

Compound: CCC(C)C(NC(=O)C(N)CCC(N)=O)C(=O)NC(CC(C)C)C(=O)NC(CO)C(=O)NC(CCCCN)C(=O)NC(CC(C)C)C(=O)NC(CCCNC(=N)N)C(=O)NC(CC(C)C)C(=O)O (stereo not drawn) [QILSKLRL (SEQ ID NO: 1), Gln-Ile-Leu-Ser-Lys-Leu-Arg-Leu] (H-QILSKLRL-OH; configuration not given here)
- Increase in Pro-Collagen I Production: +10-30%
- Increase in Pro-Collagen I Production (listed as peptide of Formula I): 10-30%
